Measurements as given in US20080287546A1, “Quorum Sensing Modulators” (priority 2005, published 2008).

Key:
[1] = system: LasR dependent quorum sensing controlled promoter, prsaL (reporter strain MW1.pUM15); assay: Signal Reception Assay (SRA), inhibition of the reporter in the presence of 0.3 μM 3-oxo-C12-HSL; format: cell-based, Pseudomonas aeruginosa; settings: compound at 100 μM
Description: (§1) The CSA yields a fluorescent signal reporting both signal synthesis and signal reception. The SRA yields a fluorescent signal due to signal reception. Compounds affecting signal reception can be detected by SRA. The SRA can detect compounds that modulate quorum sensing by inhibiting signal reception or activating signal reception. Inhibitor compounds are identified by performing the SRA with exogenous autoinducer at a concentration of half maximal activation and detecting changes in fluorescence indicative of inhibition of signal reception. Activator compounds are identified by performing the SRA in the absence of exogenous autoinducer.
The plasmid pUM15 carries a YFP reporter under control of a LasR dependent quorum sensing controlled promoter, prsaL. […] This is referred to as the Signal Reception Assay, as only those compounds that modulate signal reception will be detected.
Cells were grown in LB with 50 mM 3-(N-morpholino)propanesulfonic acid (MOPS) pH 7.0, 300 μg/mL carbenicillin. A single colony of MW1.pUM15 from a freshly struck plate was used to inoculate a starter culture and grown shaking at 30° C. not above an absorbance at 600 nm (A600) of 1.5. […]
Nanoplate format: Assay reagents were dispensed with the flying reagent dispenser, FRD (Vertex Pharmaceuticals Incorporated, San Diego, Calif.). […] Fluorescence was read with a SpectroFluor Plus plate reader (Tecan US, Durham, N.C.). […]

[2] = system: LasR dependent quorum sensing controlled promoter, prsaL (reporter strain MW1.pUM15); assay: Signal Reception Assay (SRA), activation of the reporter in the absence of an activating signal; format: cell-based, Pseudomonas aeruginosa; settings: for activation of the reporter (agonist activity): compound at 100 μM, absence of an activating signal, SRA, MW1.pUM15
Description: as §1
The plasmid pUM15 carries a YFP reporter under control of a LasR dependent quorum sensing controlled promoter, prsaL. When the plasmid is harbored by MW1, a strain lacking the ability to produce acylated homoserine lactones, the reporter is induced only in the presence of exogenous autoinducer. This is referred to as the Signal Reception Assay, as only those compounds that modulate signal reception will be detected.
Cells were grown in LB with 50 mM 3-(N-morpholino)propanesulfonic acid (MOPS) pH 7.0, 300 μg/mL carbenicillin. A single colony of MW1.pUM15 from a freshly struck plate was used to inoculate a starter culture and grown shaking at 30° C. not above an absorbance at 600 nm (A600) of 1.5. Cells were subcultured to A600 of 0.05 and grown shaking at 37° C. for 1-2 h. These mid-logarithmic cells were then added to dried down 3-oxo-C12-HSL to result in a final concentration of 0.3 μM. Induced cells were pipetted into wells containing the test compound. Uninduced cells were included as a control for the assay window. When the assay was used to characterize a potential activator, no homoserine lactone was added.
Nanoplate format: Assay reagents were dispensed with the flying reagent dispenser, FRD (Vertex Pharmaceuticals Incorporated, San Diego, Calif.). An aliquot of 1.5 μL reporter culture was added to wells in 3,456-well plates (3456 plates) and grown for 8-12 h before reading fluorescence with the topography-compensating plate reader, tcPR (Vertex Pharmaceuticals Incorporated, San Diego, Calif.). DR96 format: an aliquot of 50 μL culture was added to 96 well plate and grown for 6-8 h. Fluorescence was read with a SpectroFluor Plus plate reader (Tecan US, Durham, N.C.).
In all formats, plates were sealed in a humidified container and incubated staticly at 37° C. Fluorescence measurements were made with an excitation wavelength of 485 nm and emission wavelength of […]. To evaluate growth in the presence of test compound, the absorbance at 620 nm was also recorded.
The compounds in Table 2 were purchased from Chembridge Corp. (San Diego, Calif.), Specs (Wakefield, R.I.), Interbioscreen Ltd. (Moscow, Russia) and Chemical Diversity Labs, Inc. (San Diego, Calif.), and were characterized with the reporter strain MW1.pUM15 in both microtiter plate format and a shaking tube format. […] The tube format was performed to eliminate plate effects that may mask low levels of inhibition.
In both formats, the compounds were tested for (1) activation of the reporter in the absence of an activating signal, and (2) inhibition of the reporter in the presence of 0.3 μM 3-oxo-C12-HSL. All compounds were tested at 100 μM for their ability to activate or inhibit quorum sensing using the SRA assay. […]

Row | Compound | inhibition of the reporter (antagonist activity) [1] | activation of the reporter (agonist activity) [2] | activation efficacy (FIG. 2), compared with 3-oxo-C12-HSL ([2]; fluorescence in the SRA as a function of concentration, in the presence of 0.75% DMSO)
1 | O=C(Nc1ccccc1NC(=O)c1cccc(Cl)c1)c1cccc(Cl)c1 [Compound 1] | largest degree of inhibition | – | –
2 | O=C(Oc1c(Br)cc(Br)cc1CNC(=O)c1ccccc1Cl)c1ccc(F)cc1 [Compound 2] | – | activating effects | –
3 | Cc1ccccc1C(=O)Oc1c(Br)cc(Br)cc1CNC(=O)c1ccccc1Cl [Compound 3] | – | activating effects | –
4 | Cc1cc(C)c(OC(=O)c2ccc(Cl)cc2Cl)c(CNC(=O)c2ccccc2Cl)c1 [Compound 4] | – | activating effects | –
5 | O=C(NCc1cc(Br)cc(Br)c1OC(=O)c1ccccc1[N+](=O)[O-])c1ccccc1Cl [Compound 5] | – | activating effects | an activating effect equal to 3-oxo-C12-HSL but at reduced concentrations
